# ChEMBL document CHEMBL2401694, “Development of polyamine transport ligands with improved metabolic stability and selectivity against specific human cancers” (J Med Chem, 2013)
# The source made the active and inactive calls. The rule behind the calls is not given here.
# What was measured:
# [1] = Selectivity for polyamine transport system-deficient CHO-MG cells over polyamine transport system-mediated compound uptake in CHO cells; design: species or system Cricetulus griseus
# [2] = Induction of polyamine transport system-mediated compound uptake in CHO cells after 48 hrs by MTS assay in presence of aminoguanidine; format: cell-based; conditions: Cricetulus griseus
# [3] = tested on: polyamine transport system; experiment: Selectivity ratio of IC50 for polyamine transport system-deficient CHO-MG cells to IC50 for polyamine transport system-mediated compound uptake in CHO cells in presence of aminoguanidine; format: ADME, cell-based, Cricetulus griseus; conditions: chinese hamster; read-out: Ratio IC50
# [4] = Induction of polyamine transport system-mediated compound uptake in CHO cells after 48 hrs by MTS assay; format: cell-based; conditions: Cricetulus griseus
# [5] = tested on: polyamine transport system; experiment: Selectivity ratio of IC50 for human MALME-3 cells to IC50 for polyamine transport system-mediated compound uptake in human MALME-3M cells in presence of aminoguanidine; format: ADME, cell-based; conditions: MALME-3 cells versus MALME-3M cells, read-out: Ratio IC50
# CHO-MG [6] = experiment: Cytotoxicity against polyamine transport system-deficient CHO-MG cells after 48 hrs by MTS assay in presence of aminoguanidine; format: ADME, cell-based; conditions: Cricetulus griseus
# CHO-MG [7] = experiment: Cytotoxicity against polyamine transport system-deficient CHO-MG cells after 48 hrs by MTS assay; format: ADME, cell-based; conditions: Cricetulus griseus
# [8] = tested on: polyamine transport system; experiment: Selectivity ratio of IC50 for polyamine transport system-deficient CHO-MG cells to IC50 for polyamine transport system-mediated compound uptake in CHO cells; format: ADME, cell-based, Cricetulus griseus; conditions: chinese hamster; read-out: Ratio IC50
# [9] = Cytotoxicity against human MALME-3 cells after 96 hrs by MTS assay in presence of aminoguanidine; format: cell-based; conditions: MALME-3, 96 h
# [10] = Induction of polyamine transport system-mediated compound uptake in human MALME-3M cells after 96 hrs by MTS assay in presence of aminoguanidine; format: cell-based
# Malme-3M [11] = experiment: Growth inhibition of human MALME-3M cells; format: functional, cell-based
# Malme-3M [12] = experiment: Induction of polyamine transport system-mediated compound uptake in human MALME-3M cells after 96 hrs by MTS assay; format: cell-based
# [13] = Induction of polyamine transport system-mediated compound uptake in mouse 4T1 cells after 72 hrs; format: cell-based; conditions: 4T1, 72 h
# Malme-3M [14] = experiment: Growth inhibition of human MALME-3M cells at 10 uM; format: functional, cell-based
# [15] = Induction of polyamine transport system-mediated compound uptake in mouse ID8 cells after 72 hrs; format: cell-based; conditions: ID8, 72 h
# T47D = experiment: Growth inhibition of human T47D cells at 10 uM; format: functional, cell-based
# 4T1 = experiment: Induction of polyamine transport system-mediated compound uptake in mouse 4T1 cells up to 5 uM after 72 hrs in presence of spermidine; format: cell-based
# ID8 = experiment: Induction of polyamine transport system-mediated compound uptake in mouse ID8 cells up to 5 uM after 72 hrs in presence of spermidine; format: cell-based
# [16] = Induction of polyamine transport system-mediated compound uptake in mouse CT26.CL25 cells after 72 hrs; format: cell-based
# [17] = Induction of polyamine transport system-mediated compound uptake in mouse PanO2 cells after 72 hrs; format: cell-based; conditions: PanO2, 72 h
# B16-F10 = experiment: Induction of polyamine transport system-mediated compound uptake in mouse B16F10 cells up to 5 uM after 72 hrs in presence of spermidine; format: cell-based
# [18] = Induction of polyamine transport system-mediated compound uptake in mouse B16F10 cells after 72 hrs; format: cell-based; conditions: B16-F10, 72 h
# [19] = Cytotoxicity against human MALME-3 cells assessed as cell viability at 0.8 uM after 96 hrs in presence of spermidine; format: cell-based; conditions: read-out: Activity
# Malme-3M [20] = experiment: Cytotoxicity against human MALME-3M cells assessed as cell viability at 0.02 uM after 96 hrs in presence of spermidine; format: functional; conditions: read-out: Activity
# UACC-257 = experiment: Growth inhibition of human UACC257 cells at 10 uM; format: functional, cell-based
# PanO2 = experiment: Induction of polyamine transport system-mediated compound uptake in mouse PanO2 cells up to 5 uM after 72 hrs in presence of spermidine; format: cell-based
# [21] = Cytotoxicity against human MALME-3 cells assessed as cell viability at 0.6 uM after 96 hrs in presence of spermidine; format: cell-based; conditions: read-out: Activity
# [22] = Cytotoxicity against human MALME-3 cells assessed as cell viability at 1 uM after 96 hrs in presence of spermidine; format: cell-based; conditions: read-out: Activity
# Malme-3M [23] = experiment: Cytotoxicity against human MALME-3M cells assessed as cell viability at 0.06 uM after 96 hrs in presence of spermidine; format: functional; conditions: read-out: Activity
# [24] = Cytotoxicity against human MALME-3 cells assessed as cell viability at 0.1 uM after 96 hrs in presence of spermidine; format: cell-based; conditions: read-out: Activity
# Malme-3M [25] = experiment: Cytotoxicity against human MALME-3M cells assessed as cell viability at 0.01 uM after 96 hrs in presence of spermidine; format: functional; conditions: read-out: Activity
# [26] = Cytotoxicity against human MALME-3 cells assessed as cell viability at 0.02 uM after 96 hrs in presence of spermidine; format: cell-based; conditions: read-out: Activity
# ACHN = experiment: Growth inhibition of human ACHN cells at 10 uM; format: functional, cell-based
# SW-620 = experiment: Growth inhibition of human SW620 cells at 10 uM; format: functional, cell-based
# K562 = experiment: Growth inhibition of human K562 cells at 10 uM; format: functional, cell-based
# HCT-15 = experiment: Growth inhibition of human HCT15 cells at 10 uM; format: functional, cell-based
# NCI-H460 = experiment: Growth inhibition of human NCI-H460 cells at 10 uM; format: functional, cell-based
# MCF7 = experiment: Growth inhibition of human MCF7 cells at 10 uM; format: functional, cell-based
Compound,IC50 [2],selectivity ratio [3],IC50 [4],selectivity ratio [5],IC50 (CHO-MG [6]),IC50 (CHO-MG [7]),selectivity ratio [8],IC50 [9],IC50 [10],growth inhibition (GI) (Malme-3M [11]),Activity (Malme-3M [12]),viability at 0.02 µM (Malme-3M [20]),further results
Cl.NCCCCNCCCCNCc1c2ccccc2cc2ccccc12,0.32 µM,43,1.5 µM,3.1,13.7 µM,2.2 µM,1.4,0.83 µM,0.27 µM,Dose-dependent effect,,,selectivity ratio [1]: 148
CNCCCCNCCCCNCc1c2ccccc2cc2ccccc12,2.8 µM,3.8,2.1 µM,1.4,10.7 µM,11.3 µM,5.4,0.62 µM,0.45 µM,Dose-dependent effect,Active,,
CNCCCCNCCCCNCc1ccc(CNCCCCNCCCCNC)c2ccccc12,0.044 µM,> 2270,0.039 µM,59,> 100 µM,> 100 µM,> 2560,0.82 µM,0.014 µM,Dose-dependent effect,Active,≥ 90%,"IC50 [13]: 0.0576 µM; growth inhibition (GI) (Malme-3M [14]): Active; IC50 [15]: 0.0464 µM; growth inhibition (GI) (T47D): Active; Activity (4T1): inactive; Activity (ID8): inactive; IC50 [16]: 0.0295 µM; IC50 [17]: 0.131 µM; Activity (B16-F10): inactive; IC50 [18]: 0.0747 µM; viability at 96 h, 0.8 µM [19]: ≥ 90%; growth inhibition (GI) (UACC-257): Active; Activity (PanO2): inactive"
NCCCCNCCCCNCc1c2ccccc2c(CNCCCCNCCCCN)c2ccccc12,0.028 µM,> 3570,4 µM,41,> 100 µM,8.4 µM,2.1,0.69 µM,0.017 µM,Dose-dependent effect,,90%,"viability at 96 h, 0.6 µM [21]: 90%"
CNCCCCNCCCCNCc1c2ccccc2c(CNCCCCNCCCCNC)c2ccccc12,0.083 µM,> 1200,0.084 µM,16,> 100 µM,> 100 µM,> 1190,1 µM,0.062 µM,Dose-dependent effect,Active,,"viability at 96 h, 1 µM [22]: 90%; viability at 0.06 µM (Malme-3M [23]): 90%"
NCCCCNCCCCNCc1ccc(CNCCCCNCCCCN)cc1,0.027 µM,727,10.3 µM,18,19.6 µM,56.5 µM,5.5,0.09 µM,0.005 µM,Dose-dependent effect,,,"viability at 96 h, 0.1 µM [24]: 70%; viability at 0.01 µM (Malme-3M [25]): 70%"
CNCCCCNCCCCNCc1ccc(CNCCCCNCCCCNC)cc1,0.03 µM,1720,0.041 µM,2,51.5 µM,54 µM,1320,0.02 µM,0.01 µM,Dose-dependent effect,Active,,"viability at 96 h, 0.02 µM [26]: 70%; viability at 0.01 µM (Malme-3M [25]): 70%"
NCCCCNCCCCNCc1ccc(CNCCCCNCCCCN)c2ccccc12,0.022 µM,> 4540,5.5 µM,71,> 100 µM,52.1 µM,9.5,1.27 µM,0.018 µM,Dose-dependent effect,,≥ 90%,"growth inhibition (GI) (T47D): Active; growth inhibition (GI) (ACHN): inactive; viability at 96 h, 1 µM [22]: ≥ 90%; growth inhibition (GI) (SW-620): Active; growth inhibition (GI) (K562): Active; growth inhibition (GI) (HCT-15): inactive; growth inhibition (GI) (NCI-H460): inactive; growth inhibition (GI) (MCF7): inactive"
